According to patent publication US11040056B2, “Benzimidazoles that enhance the activity of oligonucleotides” (The University of North Carolina at Chapel Hill, priority 2018, dated 2021):

Tests used:
[1] = system: lysosomes of HeLa Luc 705 cells; experiment: Lysotracker Red accumulation assay; assay type: cell-based; details: 2 μM
Method: FIG. 9A-9D. Effects on lysosomes. FIG. 9A: Lysotracker uptake. Accumulation of Lysotracker Red in HeLa Luc 705 cells was measured after a 2 h exposure of cells to the indicated concentrations of various analogs. The lysosomotropic compound chloroquine was included as a positive control. Means of triplicate determinations are shown. The color-coded numbers refer to the fold increase in luciferase induction attained by the concentration of analog associated with the adjacent symbol on the graph. The numbers are taken from the data of FIG. 1C for UNC2383 and FIG. 4 for UNC4267, UNC4258, and UNC4428. FIG. 9B: LT50 vs TC50. […] Nonlinear regression was calculated using Prism software. The R^2 value for the plot is 0.91. FIG. 9C: 2383 vs chloroquine; luciferase induction. HeLa Luc705 cells were exposed to SSO623 and then treated with various concentrations of UNC2383 or chloroquine for 2 h and then tested for luciferase induction following the methods described in FIG. 1B-FIG. 1E. […]
The integrity of lysosomes was evaluated using the fluorescent probe Lysotracker Red (Thermo Fisher). […] Cells were thoroughly rinsed in PBS, lysed in 0.2% TX 100, and centrifuged briefly at 4000 rpm, and 100 uL of the supernate was distributed to black 96 well plates for analysis of fluorescence using a FLUOstar Omega 96 well microplate reader.

EGFP654 transgenic mouse = experiment: In vivo EGFP splice correction in EGFP654 transgenic mice
Method: FIG. 10A-10E. In vivo effects-RNA. EGFP654 mice were treated with SSO623 or a mismatched control (MM) and then received UNC2383 or diluent (N=3). RT-PCR with gel analysis was used to detect correctly or incorrectly spliced EGFP mRNA. The gel images were quantitated using Fiji software. Gel image for liver FIG. 10A. The lower band (87 bp) is correctly spliced EGFP mRNA, while the upper band (160 bp) is uncorrected. FIG. 10B-10E Quantitation of splice correction in liver FIG. 10B, kidney FIG. 10C, intestine FIG. 10D, and lung FIG. 10E. The bars indicate the ratio of correctly spliced to incorrectly spliced mRNA×100. […] EGFP immunostaining was performed in liver, lung, and intestine tissue and analyzed by confocal microscopy. […]
Effects of UNC2383 on endosome stability were monitored in cell culture models as previously described. […] Live cells were imaged by fluorescence confocal microscopy with or without treatment with UNC2383 or its analogs. […] Co-localization of TAMRA labeled SSO 623 with marker proteins was quantitated using Fiji (ImageJ) software and expressed as a Manders' Correlation Coefficient. […] EGFP protein expression was monitored by immunostaining with an anti-EGFP antibody (Abcam) using techniques previously described. […]
PCR techniques. […] The PCR products were separated on 1.5% agarose gels and bands were visualized by staining with Gel RedTMand quantitated using a Biorad ChemiDoc XRS+ scanner. […]

## O=C(Nc1nc2ccccc2n1CCN1CCCC1)c1cc2cc(Cl)ccc2o1 [UNC2383]
[1]
  effect on lysotracker accumulation: little effect
EGFP654 transgenic mouse; 35 mg/kg SSO623 i.p. two days, then 5 mg/kg UNC2383 i.p., liver, kidney, lung, intestine, 5 h
  correctly spliced EGFP message (RT-PCR): increase in correctly spliced EGFP message
EGFP654 transgenic mouse; SSO623 plus UNC2383, bronchi, intestinal crypts, 24 h
  EGFP protein expression (immunostaining): expressed EGFP
